Measurements reported in patent US11000033B2, “Ketone or oxime compound, and herbicide” (NISSAN CHEMICAL CORPORATION, priority 2014, dated 2021).

Key:
Type in all cases: in vivo
Scirpus juncoides = assay: Test Example 1: herbicidal activity, application before weed generation in submerged conditions (symbol B); details: application herbicide amount 320 g/ha
Summary of the method: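 Compound emulsion was diluted to a set herbicide amount and applied to the water surface on the sowing day, into submerged (4 cm) alluvial-soil pots sown with mixed weed seeds and transplanted 2.5-leaf rice. Pots were held in a 25–30 °C greenhouse, and weeds were scored 0–5 by herbicidal ratio after 3 weeks.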

[1] = system: Echinochloa crus-galli var. crus-galli; assay: Test Example 3: herbicidal effect by foliage application, Wagner pot (symbol H); details: application herbicide amount 320 g/ha
Summary of the method: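 Steps: fill pot with alluvial soil; add water to 0.1–0.5 cm depth; sow weed and rice seed; grow 14 days at 25–30 °C; spray diluted emulsion over the leaves; rate effect after 3 weeks.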

Setaria viridis = assay: Test Example 4: herbicidal effect by soil treatment (symbol G); details: application herbicide amount 320 g/ha
Summary of the method: (§1)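 Seeds were sown in sterilized diluvial soil, covered with about 1.5 cm of soil, and the soil surface was sprayed with a water-diluted emulsion of the compound at a predetermined rate. Plants grew in a greenhouse at 25° C. to 30° C.; effects were scored visually 3 weeks after application.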

[2] = system: Echinochloa crus-galli var. crus-galli; assay: Test Example 4: herbicidal effect by soil treatment (symbol H); details: application herbicide amount 320 g/ha
Summary of the method: as §1

Alopecurus myosuroides = assay: Test Example 4: herbicidal effect by soil treatment (symbol J); details: application herbicide amount 320 g/ha
Summary of the method: as §1

Lolium multiflorum Lam. = assay: Test Example 4: herbicidal effect by soil treatment (symbol K); details: application herbicide amount 320 g/ha
Summary of the method: as §1

Stellaria media = assay: Test Example 4: herbicidal effect by soil treatment (symbol P); details: application herbicide amount 320 g/ha
Summary of the method: as §1

corn [3] = assay: Test Example 4: effect on crop by soil treatment (symbol c); details: application herbicide amount 320 g/ha
Summary of the method: (§2)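 Steps: fill box with sterilized diluvial soil; sow seed spot-like; cover with ~1.5 cm soil; grow in greenhouse (25° C. to 30° C.).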

rice = assay: Test Example 4: effect on crop by soil treatment (symbol b); details: application herbicide amount 320 g/ha
Summary of the method: as §2

wheat [4] = assay: Test Example 4: effect on crop by soil treatment (symbol e); details: application herbicide amount 320 g/ha
Summary of the method: as §2

Digitaria ciliaris = assay: Test Example 5: herbicidal effect by foliage application, plastic box (symbol F); details: 320 g/ha, 3 weeks after application
Summary of the method: (§3)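 After sowing into sterilized diluvial soil and growing two weeks under glass at 25° C. to 30° C., seedlings receive a uniform foliar spray of diluted emulsion. Damage is judged visually three weeks on.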

Apera spica-venti = assay: Test Example 5: herbicidal effect by foliage application, plastic box (symbol L); details: 320 g/ha, 3 weeks after application
Summary of the method: as §3

Veronica persica = assay: Test Example 5: herbicidal effect by foliage application, plastic box (symbol R); details: 320 g/ha, 3 weeks after application
Summary of the method: as §3

corn [5] = assay: Test Example 5: effect on crop by foliage application, plastic box (symbol c); details: 320 g/ha, 3 weeks after application
Summary of the method: (§4)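 In a plastic box 7 cm deep filled with sterilized diluvial soil, seeds of crops and weeds such as Digitaria ciliaris, Avena fatua and Amaranthus retroflexus are sown in spots and covered with about 1.5 cm of soil before greenhouse growth at 25–30° C.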

soybean = assay: Test Example 5: effect on crop by foliage application, plastic box (symbol d); details: 320 g/ha, 3 weeks after application
Summary of the method: as §4

wheat [6] = assay: Test Example 5: effect on crop by foliage application, plastic box (symbol e); details: 320 g/ha, 3 weeks after application
Summary of the method: as §4

rapeseed = assay: Test Example 5: effect on crop by foliage application, plastic box (symbol g); details: 320 g/ha, 3 weeks after application
Summary of the method: as §4

| Structure (SMILES) | Herbicidal effect grade, B: Scirpus juncoides (Scirpus juncoides) | F: Digitaria ciliaris, herbicidal effect grade (Digitaria ciliaris) | L: Apera spica-venti, herbicidal effect grade (Apera spica-venti) | R: Veronica persica, herbicidal effect grade (Veronica persica) | c: corn, effect on crop grade (corn [5]) | d: soybean, effect on crop grade (soybean) | e: wheat, effect on crop grade (wheat [6]) | g: rapeseed, effect on crop grade (rapeseed) | herbicidal effect on H (Echinochloa crus-galli var. crus-galli), grade 0-5 [1] | G (Setaria viridis) herbicidal effect grade (Setaria viridis) | H (Echinochloa crus-galli var. crus-galli) herbicidal effect grade [2] | J (Alopecurus myosuroides) herbicidal effect grade (Alopecurus myosuroides) | K (Lolium multiflorum Lam.) herbicidal effect grade (Lolium multiflorum Lam.) | P (Stellaria media) herbicidal effect grade (Stellaria media) | c (corn) effect on crop grade (corn [3]) | b (directly sowed rice plant) effect on crop grade (rice) | e (wheat) effect on crop grade (wheat [4]) | also measured |
| --- | --- | --- | --- | --- | --- | --- | --- | --- | --- | --- | --- | --- | --- | --- | --- | --- | --- | --- |
| CON=C(CC1CC(O)=C(c2c(C)cc(Br)cc2C)C1=O)C(C)C (centres unmarked) [9-001] | 0 (Herbicidal ratio of 5% or lower (almost no effect)) | 4 (Herbicidal ratio of 70% or higher and lower than 90%) | 3 (Herbicidal ratio of 40% or higher and lower than 70%) | 0 (Herbicidal ratio of 5% or lower (almost no effect)) | 4 (Herbicidal ratio of 70% or higher and lower than 90%) | 0 (Herbicidal ratio of 5% or lower (almost no effect)) | 0 (Herbicidal ratio of 5% or lower (almost no effect)) | 2 (Herbicidal ratio of 20% or higher and lower than 40%) |  |  |  |  |  |  |  |  |  | H (Echinochloa crus-galli var. crus-galli) herbicidal effect grade ([1]; Table 24): 5 (Herbicidal ratio of 90% or more (almost completely withered)); Herbicidal effect grade, G: Setaria viridis (Setaria viridis): 4 (Herbicidal ratio of 70% or higher and lower than 90%); Herbicidal effect grade, H: Echinochloa crus-galli var. crus-galli [2]: 5 (Herbicidal ratio of 90% or more (almost completely withered)); Herbicidal effect grade, J: Alopecurus myosuroides (Alopecurus myosuroides): 3 (Herbicidal ratio of 40% or higher and lower than 70%); Herbicidal effect grade, K: Lolium multiflorum Lam. (Lolium multiflorum Lam.): 5 (Herbicidal ratio of 90% or more (almost completely withered)); Herbicidal effect grade, P: Stellaria media (Stellaria media): 0 (Herbicidal ratio of 5% or lower (almost no effect)); Effect on crop grade, c: corn (corn [3]): 0 (Herbicidal ratio of 5% or lower (almost no effect)); Effect on crop grade, b: directly sowed rice plant (rice): 4 (Herbicidal ratio of 70% or higher and lower than 90%); Effect on crop grade, e: wheat (wheat [4]): 0 (Herbicidal ratio of 5% or lower (almost no effect)) |
| CON=C(C)CC1CC(OC(=O)C(C)Cl)=C(c2c(C)cc(C)cc2C)C1=O (centres unmarked) [1-042] | 5 (Herbicidal ratio of 90% or more (almost completely withered)) | 5 (Herbicidal ratio of 90% or more (almost completely withered)) | 5 (Herbicidal ratio of 90% or more (almost completely withered)) | 1 (Herbicidal ratio of 5% or higher and lower than 20%) | 4 (Herbicidal ratio of 70% or higher and lower than 90%) | 3 (Herbicidal ratio of 40% or higher and lower than 70%) | 5 (Herbicidal ratio of 90% or more (almost completely withered)) | 4 (Herbicidal ratio of 70% or higher and lower than 90%) | 5 (Herbicidal ratio of 90% or more (almost completely withered)) | 5 (Herbicidal ratio of 90% or more (almost completely withered)) | 5 (Herbicidal ratio of 90% or more (almost completely withered)) | 5 (Herbicidal ratio of 90% or more (almost completely withered)) | 5 (Herbicidal ratio of 90% or more (almost completely withered)) | 0 (Herbicidal ratio of 5% or lower (almost no effect)) | 3 (Herbicidal ratio of 40% or higher and lower than 70%) | 5 (Herbicidal ratio of 90% or more (almost completely withered)) | 1 (Herbicidal ratio of 5% or higher and lower than 20%) |  |
| CON=C(C)C(c1ccc(F)cc1)C1CC(O)=C(c2c(C)cc(C)cc2C)C1=O (centres unmarked) [1-049] | 0 (Herbicidal ratio of 5% or lower (almost no effect)) | 0 (Herbicidal ratio of 5% or lower (almost no effect)) | 0 (Herbicidal ratio of 5% or lower (almost no effect)) | 0 (Herbicidal ratio of 5% or lower (almost no effect)) | 0 (Herbicidal ratio of 5% or lower (almost no effect)) | 0 (Herbicidal ratio of 5% or lower (almost no effect)) | 0 (Herbicidal ratio of 5% or lower (almost no effect)) | 0 (Herbicidal ratio of 5% or lower (almost no effect)) | 0 (Herbicidal ratio of 5% or lower (almost no effect)) | 0 (Herbicidal ratio of 5% or lower (almost no effect)) | 0 (Herbicidal ratio of 5% or lower (almost no effect)) | 0 (Herbicidal ratio of 5% or lower (almost no effect)) | 0 (Herbicidal ratio of 5% or lower (almost no effect)) | 0 (Herbicidal ratio of 5% or lower (almost no effect)) | 0 (Herbicidal ratio of 5% or lower (almost no effect)) | 0 (Herbicidal ratio of 5% or lower (almost no effect)) | 0 (Herbicidal ratio of 5% or lower (almost no effect)) |  |
| CSCCON=C(C)CC1CC(O)=C(c2c(C)cc(C)cc2C)C1=O (centres unmarked) [1-029] | 0 (Herbicidal ratio of 5% or lower (almost no effect)) | 5 (Herbicidal ratio of 90% or more (almost completely withered)) | 5 (Herbicidal ratio of 90% or more (almost completely withered)) | 1 (Herbicidal ratio of 5% or higher and lower than 20%) | 3 (Herbicidal ratio of 40% or higher and lower than 70%) | 1 (Herbicidal ratio of 5% or higher and lower than 20%) | 5 (Herbicidal ratio of 90% or more (almost completely withered)) | 4 (Herbicidal ratio of 70% or higher and lower than 90%) | 5 (Herbicidal ratio of 90% or more (almost completely withered)) | 5 (Herbicidal ratio of 90% or more (almost completely withered)) | 5 (Herbicidal ratio of 90% or more (almost completely withered)) | 3 (Herbicidal ratio of 40% or higher and lower than 70%) | 5 (Herbicidal ratio of 90% or more (almost completely withered)) | 0 (Herbicidal ratio of 5% or lower (almost no effect)) | 0 (Herbicidal ratio of 5% or lower (almost no effect)) | 5 (Herbicidal ratio of 90% or more (almost completely withered)) | 0 (Herbicidal ratio of 5% or lower (almost no effect)) |  |
